These results are taken from US20250171457A1, “NITROGEN-CONTAINING HETEROCYCLIC COMPOUND HAVING NRF2 ACTIVATION EFFECT” (CHUGAI SEIYAKU KABUSHIKI KAISHA, priority 2022, published 2025).

One may read the EC50 as the concentration at which the effect is half-maximal.

The assay deals with Nrf2 transcriptional activity (pARE-Luc reporter) in HepG2 cells. The assay is described as follows: In vitro Nrf2 transcriptional activity measurement by ARE-dependent reporter assay in HepG2 cell. Particulars: Homo sapiens; HepG2 cells transfected with pARE-Luc, 4 hours at 37° C.; luciferase activity of Example 1-54 or Example 17-23 at 3.75 μM defined as 100%. It is filed as cell-based, human. Summed up:
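HepG2 cells transfected with pGL4.37 (pARE-Luc), replated onto compound and incubated 4 h at 37° C; luciferase read by Bright-Glo luminescence. Response normalized to 100% set by a reference compound at 3.75 μM; EC50 from dose-response curve.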
(In general: Reporter assays use an easily measured gene product as a stand-in for the process of interest.)
As for `COCC(F)(F)CN1CC2(C1)CN(c1cc(Cl)c(C(=O)N3COc4c(cccc4-c4cc(N5C6CCC5COC6)c(C(=O)O)cc4F)C3)c(Cl)c1)C2` [Compound 16-17, 4-[3-[2,6-Dichloro-4-[6-(2,2-difluoro-3-methoxypropyl)-2,6-diazaspiro[3.3]heptan-2-yl]benzoyl]-2,4-dihydro-1,3-benzoxazin-8-yl]-5-fluoro-2-(3-oxa-8-azabicyclo[3.2.1]octan-8-yl)benzoic acid], a half-maximal effect (EC50) was put at 2.7 nM.
With `CC[C@@H](c1cccc2c1C(=O)NN(C(=O)c1c(Cl)cc(-c3cnn(C)c3)cc1Cl)C2)[C@H](C)C(=O)O` [Compound 17-1, (2S,3R)-3-[2-[2,6-Dichloro-4-(1-methylpyrazol-4-yl)benzoyl]-4-oxo-1,3-dihydrophthalazin-5-yl]-2-methylpentanoic acid], a half-maximal effect (EC50) was put at 2.2 nM.
Regarding `CC[C@@H](c1cccc2c1CON(C(=O)c1c(Cl)cc(-c3cnn(C)c3)cc1Cl)C2)[C@H](C)C(=O)O` [Compound 17-2, (2S,3R)-3-[3-[2,6-Dichloro-4-(1-methylpyrazol-4-yl)benzoyl]-1,4-dihydro-2,3-benzoxazin-8-yl]-2-methylpentanoic acid], the midpoint of the response, the EC50, lay at 7.7 nM.
For `CC[C@@H](c1cccc2c1OCN(C(=O)c1c(Cl)cc(-c3cnn(C)c3)cc1Cl)C2)[C@H](C)C(=O)O` [Compound 17-3, (2S,3R)-3-[3-[2,6-Dichloro-4-(1-methylpyrazol-4-yl)benzoyl]-2,4-dihydro-1,3-benzoxazin-8-yl]-2-methylpentanoic acid] the value was 9.7 nM; for `CC[C@H](CC(=O)O)c1cccc2c1C(=O)NN(C(=O)c1c(Cl)cc(-c3cnn(C)c3)cc1Cl)C2` [Compound 17-4, (3R)-3-[2-[2,6-Dichloro-4-(1-methylpyrazol-4-yl)benzoyl]-4-oxo-1,3-dihydrophthalazin-5-yl]pentanoic acid], 10 nM; for `CC[C@@H](c1cccc2c1C(=O)NN(C(=O)c1c(Cl)cc(-c3cnn(C)c3)cc1Cl)C2)[C@@H](C)C(=O)O` [Compound 17-5, (2R,3R)-3-[2-[2,6-Dichloro-4-(1-methylpyrazol-4-yl)benzoyl]-4-oxo-1,3-dihydrophthalazin-5-yl]-2-methylpentanoic acid], 17 nM.
`CC[C@@H](c1cccc2c1CCN(C(=O)c1c(Cl)cc(-c3cnn(C)c3)cc1Cl)C2)[C@H](C)C(=O)O` [Compound 17-8, (2S,3R)-3-[2-[2,6-Dichloro-4-(1-methylpyrazol-4-yl)benzoyl]-3,4-dihydro-1H-isoquinolin-5-yl]-2-methylpentanoic acid] had an EC50 of 20 nM.
The compound `CCC(CC(=O)O)c1cccc2c1C(=O)NN(C(=O)c1c(Cl)cc(-c3cnn(C)c3)cc1Cl)C2` (stereo not drawn) [Compound 17-9, 3-[2-[2,6-Dichloro-4-(1-methylpyrazol-4-yl)benzoyl]-4-oxo-1,3-dihydrophthalazin-5-yl]pentanoic acid] returned an EC50 of 21 nM.
Turning to `CC[C@@H](c1cccc2c1CCN(C(=O)c1c(Br)cc(-c3cnn(C)c3)cc1Br)C2)[C@H](C)C(=O)O` [Compound 17-10, (2S,3R)-3-[2-[2,6-Dibromo-4-(1-methylpyrazol-4-yl)benzoyl]-3,4-dihydro-1H-isoquinolin-5-yl]-2-methylpentanoic acid], a half-maximal effect (EC50) was put at 21 nM.
The compound `Cc1c(C(CC(=O)O)c2cccc3c2CCN(C(=O)c2c(Cl)cc(-c4cnn(C)c4)cc2Cl)C3)ccc2c1nnn2C` (stereo not drawn) [Compound 17-15, 3-[2-[2,6-Dichloro-4-(1-methylpyrazol-4-yl)benzoyl]-3,4-dihydro-1H-isoquinolin-5-yl]-3-(1,4-dimethylbenzotriazol-5-yl)propanoic acid] registered an EC50 of 58 nM.
For `Cc1c(C(CC(=O)O)c2cccc3c2CON(C(=O)c2c(Cl)cc(-c4cnn(C)c4)cc2Cl)C3)ccc2c1nnn2C` (stereo not drawn) [Compound 17-16, 3-[3-[2,6-Dichloro-4-(1-methylpyrazol-4-yl)benzoyl]-1,4-dihydro-2,3-benzoxazin-8-yl]-3-(1,4-dimethylbenzotriazol-5-yl)propanoic acid] the value was 74 nM.
`Cn1cc(-c2cc(Cl)c(C(=O)N3CCc4c(cccc4-c4ccc(C(=O)O)c(N5CCOCC5)c4)C3)c(Cl)c2)cn1` [Compound 17-18, 4-[2-[2,6-Dichloro-4-(1-methylpyrazol-4-yl)benzoyl]-3,4-dihydro-1H-isoquinolin-5-yl]-2-morpholin-4-ylbenzoic acid] showed a concentration giving a half-maximal response (EC50) of 97 nM.
`Cn1cc(-c2cc(Cl)c(C(=O)N3CSc4c(cccc4-c4ccc(C(=O)O)c(N5CCOCC5)c4)C3)c(Cl)c2)cn1` [Compound 17-21, 4-[3-[2,6-Dichloro-4-(1-methylpyrazol-4-yl)benzoyl]-2,4-dihydro-1,3-benzothiazin-8-yl]-2-morpholin-4-ylbenzoic acid]: the concentration giving a half-maximal response (EC50) came out at 22 nM.
In the case of `COCCOc1cc(Cl)c(C(=O)N2CCc3c(cccc3[C@H](C)[C@H](C)C(=O)O)C2)c(Cl)c1` [Compound 17-23, (2S,3R)-3-[2-[2,6-Dichloro-4-(2-methoxyethoxy)benzoyl]-3,4-dihydro-1H-isoquinolin-5-yl]-2-methylbutanoic acid], the concentration for a half-maximal effect (EC50) turned out to be 110 nM.
Regarding `C=Cc1cc(C(=O)N2COc3c(cccc3-c3cc(N4CCOCC4)c(C(=O)O)cc3F)C2)c(Cl)cc1OC` [Compound 18-1, 4-[3-(2-Chloro-5-ethenyl-4-methoxybenzoyl)-2,4-dihydro-1,3-benzoxazin-8-yl]-5-fluoro-2-morpholin-4-ylbenzoic acid], the EC50 came to 4.1 nM.
`COc1cc(Cl)c(C(=O)N2COc3c(cccc3-c3cc(N4CCOCC4)c(C(=O)O)cc3F)C2)cc1C1CC1` [Compound 18-2, 4-[3-(2-Chloro-5-cyclopropyl-4-methoxybenzoyl)-2,4-dihydro-1,3-benzoxazin-8-yl]-5-fluoro-2-morpholin-4-ylbenzoic acid] yielded an EC50 of 5.8 nM.
For `COc1cc(Cl)c(C(=O)N2COc3c(cccc3-c3cc(N4CCOCC4)c(C(=O)O)cc3F)C2)cc1C#N` [Compound 18-3, 4-[3-(2-Chloro-5-cyano-4-methoxybenzoyl)-2,4-dihydro-1,3-benzoxazin-8-yl]-5-fluoro-2-morpholin-4-ylbenzoic acid] the value was 14 nM; for `CCc1cc(C(=O)N2COc3c(cccc3-c3cc(N4CCOCC4)c(C(=O)O)cc3F)C2)c(Cl)cc1OC` [Compound 18-4, 4-[3-(2-Chloro-5-ethyl-4-methoxybenzoyl)-2,4-dihydro-1,3-benzoxazin-8-yl]-5-fluoro-2-morpholin-4-ylbenzoic acid], 3.7 nM; for `Cn1cc(-c2cc(Cl)c(C(=O)N3COc4c(cccc4-c4ccc(C(=O)O)c(N5CCSCC5)c4)C3)c(Cl)c2)cn1` [Compound 18-5, 4-[3-[2,6-Dichloro-4-(1-methylpyrazol-4-yl)benzoyl]-2,4-dihydro-1,3-benzoxazin-8-yl]-2-thiomorpholin-4-ylbenzoic acid], 12 nM.
Compound `CN1CCN(c2cc(Cl)c(C(=O)N3COc4c(cccc4-c4cc(N5CCCC5)c(C(=O)O)cc4F)C3)c(Cl)c2)CC1` [Compound 18-6, 4-[3-[2,6-Dichloro-4-(4-methylpiperazin-1-yl)benzoyl]-2,4-dihydro-1,3-benzoxazin-8-yl]-5-fluoro-2-pyrrolidin-1-ylbenzoic acid] displayed an EC50 of 10 nM.
In turn, `COc1cc2c(c(-c3cc(N4C5CCC4COC5)c(C(=O)O)cc3F)c1)OCN(C(=O)c1c(Cl)cc(N3CC(OC)C3)cc1Cl)C2` [Compound 18-7, 4-[3-[2,6-Dichloro-4-(3-methoxyazetidin-1-yl)benzoyl]-6-methoxy-2,4-dihydro-1,3-benzoxazin-8-yl]-5-fluoro-2-(3-oxa-8-azabicyclo[3.2.1]octan-8-yl)benzoic acid] registered an EC50 of 17 nM.
Consider `Cn1cc(-c2cc(Cl)c(C(=O)N3CNc4c(cccc4-c4cc(N5CCOCC5)c(C(=O)O)cc4F)C3)c(Cl)c2)cn1` [Compound 18-8, 4-[3-[2,6-Dichloro-4-(1-methylpyrazol-4-yl)benzoyl]-2,4-dihydro-1H-quinazolin-8-yl]-5-fluoro-2-morpholin-4-ylbenzoic acid], for which a half-maximal effect (EC50) was put at 2.8 nM.
`Cn1cc(-c2cc(Cl)c(C(=O)N3Cc4cccc(-c5cc(N6CCOCC6)c(C(=O)O)cc5F)c4NC3=O)c(Cl)c2)cn1` [Compound 18-9, 4-[3-[2,6-Dichloro-4-(1-methylpyrazol-4-yl)benzoyl]-2-oxo-1,4-dihydroquinazolin-8-yl]-5-fluoro-2-morpholin-4-ylbenzoic acid] came in with an EC50 of 23 nM.
The compound `O=C(O)c1ccc(-c2cccc3c2OCN(C(=O)c2c(Cl)cc(N4CCC(N5CCOCC5)CC4)cc2Cl)C3)nc1N1CCCCC1` [Compound 18-10, 6-[3-[2,6-Dichloro-4-(4-morpholin-4-ylpiperidin-1-yl)benzoyl]-2,4-dihydro-1,3-benzoxazin-8-yl]-2-piperidin-1-ylpyridine-3-carboxylic acid] yielded an EC50 of 36 nM.
The compound `Cn1cc(-c2cc(Cl)c(C(=O)N3CCc4c(cccc4-c4ccc(C(=O)O)c(N5CCCCC5)n4)C3)c(Cl)c2)cn1` [Compound 18-11, 6-[2-[2,6-Dichloro-4-(1-methylpyrazol-4-yl)benzoyl]-3,4-dihydro-1H-isoquinolin-5-yl]-2-piperidin-1-ylpyridine-3-carboxylic acid] came in with a concentration giving a half-maximal response (EC50) of 310 nM.
Compound `Cn1cc(-c2cc(Cl)c(C(=O)N3COc4c(ccnc4-c4ccc(C(=O)O)c(N5CCOCC5)c4)C3)c(Cl)c2)cn1` [Compound 18-12, 4-[3-[2,6-Dichloro-4-(1-methylpyrazol-4-yl)benzoyl]-2,4-dihydropyrido[4,3-e][1,3]oxazin-8-yl]-2-morpholin-4-ylbenzoic acid] yielded an EC50 of 24 nM.
For `Cc1cc(N2CC3(C2)OCC(C)(C)CO3)cc(C)c1C(=O)N1COc2c(cccc2-c2cc(N3C4CCC3COC4)c(C(=O)O)cc2F)C1` [Compound 19-2, 4-[3-[4-(7,7-Dimethyl-5,9-dioxa-2-azaspiro[3.5]nonan-2-yl)-2,6-dimethylbenzoyl]-2,4-dihydro-1,3-benzoxazin-8-yl]-5-fluoro-2-(3-oxa-8-azabicyclo[3.2.1]octan-8-yl)benzoic acid] the value was 1.6 nM.
